We go through two compounds from article PMC12881670, “Investigation into ligand selectivity and bias at the formyl peptide receptor family” (The Journal of Pharmacology and Experimental Therapeutics, 2025).

The target of test [1] is T1, Hs_FPR2 (Homo sapiens, UniProt P25090).
T1 construct: expressed in transfected cells
T1 sequence (P25090 1-351): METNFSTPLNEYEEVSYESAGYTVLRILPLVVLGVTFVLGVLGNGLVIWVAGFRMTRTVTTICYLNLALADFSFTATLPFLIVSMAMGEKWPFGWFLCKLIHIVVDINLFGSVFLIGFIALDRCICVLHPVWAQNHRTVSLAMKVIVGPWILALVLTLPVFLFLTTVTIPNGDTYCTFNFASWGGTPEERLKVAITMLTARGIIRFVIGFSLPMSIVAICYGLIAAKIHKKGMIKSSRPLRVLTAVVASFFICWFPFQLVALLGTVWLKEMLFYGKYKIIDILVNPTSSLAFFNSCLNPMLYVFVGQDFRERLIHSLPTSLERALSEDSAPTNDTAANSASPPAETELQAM
Briefly: BRET receptor-RLuc8 interaction with Venus-mGsi. The format is cell-based. As to the method:
(§1) BRET1 assays to measure FPR interaction with Venus-mGsi and Arrestin 3-yellow fluorescent protein (YFP) were performed as previously described.[31]^,[32] Briefly, all FPRs C-terminally fused to Renilla Luciferase (donor, RLuc8) were transiently transfected along with either Venus-mGsi or YFP-Arrestin 3 (acceptor) at a ratio of 1:4. 24 hours post transfection, cells were replated into white-walled, 96-well plates and cultured for a further 24–48 hours. On the day of experimentation, growth media was aspirated and replaced with 80 μl Hanks Buffered Saline Solution and equilibrated for 30 minutes. Coelenterazine h was added to each well to a final concentration of 5 μM for 5 minutes before the addition of each compound, and the plate was incubated for a further 10 minutes at 37 °C before being read on a ClarioStar Plus, with luminescence measured at 480/20 nm (donor) and 530/20 (acceptor). The BRET ratio (acceptor/donor) was determined, and the background (untreated) subtracted to give the N-BRET value.
(§2) All data were analyzed using GraphPad Prism using the nonlinear regression log(agonist) versus response (3 parameters) function for all assays, except binding, which was analyzed using the One site-FitlogIC50 function. Bias calculations were carried out following IUPHAR guidelines as described,[27]^,[37] and data were presented as the Δ Activity ratio (Log[EmaxB/EC50B])-(Log[EmaxA/EC50A]).
Background: In BRET a luciferase serves as donor, and the signal depends on an acceptor being close.

The target in test [2] is T2, Mm_Fpr2 (Mus musculus, UniProt O88536).
T2 construct: expressed in transfected cells
T2 sequence (O88536 1-351): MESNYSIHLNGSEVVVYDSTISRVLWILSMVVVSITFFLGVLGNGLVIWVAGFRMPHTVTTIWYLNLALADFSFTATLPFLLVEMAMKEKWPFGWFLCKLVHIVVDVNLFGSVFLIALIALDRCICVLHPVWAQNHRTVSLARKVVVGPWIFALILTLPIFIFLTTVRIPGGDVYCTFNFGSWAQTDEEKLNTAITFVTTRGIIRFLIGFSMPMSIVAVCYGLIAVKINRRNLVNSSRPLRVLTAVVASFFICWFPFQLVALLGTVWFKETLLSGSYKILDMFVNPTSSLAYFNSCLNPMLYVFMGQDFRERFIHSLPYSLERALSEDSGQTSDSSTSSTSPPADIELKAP
Briefly: BRET receptor-RLuc8 interaction with Venus-mGsi. Type of test: cell-based. As to the method: as §1, §2

Test [3] has as its target T2, Mm_Fpr2. Briefly: Internalization of FLAG-tagged receptors by flow cytometry. The format is cell-based. Set-up: Emax: dose or concentration left out as unconfirmed. As to the method:
(§3) Internalization of FPRs was measured by flow cytometry.[30] Briefly, cells were incubated with Alexa Fluor 657 conjugated M1 antiflag antibody (Sigma-Aldrich Cat# F3040, RRID:AB_439712) for 30 minutes at 37 °C to label surface receptors. Cells were then incubated with the indicated concentration of ligand before washing in PBS/0.04% EDTA to remove any remaining surface antibody. Remaining fluorescence was then measured using flow cytometry on either a BD FACScalibur or Attune, recording 5000 gated events. […] As a control, some samples were left untreated, and “strip only” was measured as a readout of constitutive endocytosis, and this value was subtracted from the data. Vehicle control (0.1% DMSO) had no effect on internalization of receptors.
as §2
In general terms: Flow cytometry measures light scatter and fluorescence of single cells or particles in a stream.

The target in test [4] is T1, Hs_FPR2. Briefly: ERK1/2 phosphorylation by Western blotting. The format is cell-based. The procedure:
(§4) ERK phosphorylation was detected by Western blotting as previously described.[30] Briefly, HEK293 cells stably expressing FLAG-tagged FPRs were plated into 12-well culture plates until 90% confluent. On the day of the experiment, culture media was replaced with serum-free Dulbecco’s modified Eagle’s medium and incubated for 2 hours before stimulation with the indicated compounds. After 7 minutes, the media was removed and stimulation terminated by the addition of 100 μl sample buffer (0.5% SDS, Tris (pH 6.8), glycerol, at >90 °C).
as §2
In general terms: A western blot detects proteins with antibodies after separation by electrophoresis.

In test [5] the target is T2, Mm_Fpr2. Briefly: ERK1/2 phosphorylation by Western blotting. Type of test: cell-based. As to the method:
as §4, §2

For test [6], the target named is T1, Hs_FPR2. Briefly: Competition binding of fluorescent WKYMVm, flow cytometry. As to the method: (§5) Mean cell fluorescence was then measured for 5000 cells by flow cytometry using either a BD FACScalibur or BD Attune.
as §2

Test [7] deals with T2, Mm_Fpr2. The description is as above. Particulars: for Max Comp (%): maximum proportion of competition with 10 nM K(5/6-FAM)-WKYMVm. The procedure: as §5, §2
For test [8], the target named is T1, Hs_FPR2. Briefly: BRET receptor-RLuc8 interaction with Arrestin 3-YFP. Type of test: cell-based. As to the method: as §1, §2
Test [9] deals with T2, Mm_Fpr2. Described as above. The format is cell-based. The procedure: as §1, §2
The target in test [10] is T3, Mm_Fpr1 (Mus musculus, UniProt P33766).
T3 construct: expressed in transfected cells
T3 sequence (P33766 1-364): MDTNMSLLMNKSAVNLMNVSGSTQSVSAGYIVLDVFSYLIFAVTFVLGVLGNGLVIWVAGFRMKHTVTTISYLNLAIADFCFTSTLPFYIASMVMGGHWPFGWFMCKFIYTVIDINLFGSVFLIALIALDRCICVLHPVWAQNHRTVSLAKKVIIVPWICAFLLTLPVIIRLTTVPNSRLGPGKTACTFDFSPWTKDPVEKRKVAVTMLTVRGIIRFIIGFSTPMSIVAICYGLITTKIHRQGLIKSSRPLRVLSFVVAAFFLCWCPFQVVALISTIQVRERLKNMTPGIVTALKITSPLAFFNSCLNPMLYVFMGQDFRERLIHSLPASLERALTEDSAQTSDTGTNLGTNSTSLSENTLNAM
Briefly: BRET receptor-RLuc8 interaction with Venus-mGsi. Type of test: cell-based. Particulars: mGsi BRET, mean, ND = no interaction detected. As to the method: as §1, §2

The target in test [11] is T3, Mm_Fpr1. Briefly: Internalization of FLAG-tagged receptors by flow cytometry. The format is cell-based. Set-up: Emax: dose or concentration left out as unconfirmed. As to the method:
as §3, §2

Test [12] relates to formyl peptide receptor family (Hs_FPR1, Hs_FPR2, Mm_Fpr1, Mm_Fpr2). Briefly: Summary of main findings: receptor subtype selectivity and ligand bias across all readouts. Details: species or system human and mouse. The text has this: To determine ligand bias, a reference ligand is required, that is, “balanced” for the pathways tested.[37] […] We then used measurements of the activity ratio (Log (Emax/EC50)) for each receptor, ligand, and pathway in an attempt to observe any ligand bias (Fig. 6).

For test [13], the target named is T3, Mm_Fpr1. Briefly: ERK1/2 phosphorylation by Western blotting. Type of test: cell-based. As to conditions: mean, ND = no pERK signal detected. As to the method:
as §4, §2

The target in test [14] is T3, Mm_Fpr1. Briefly: Competition binding of fluorescent WKYMVm, flow cytometry. Particulars: mean, ND = no competition observed. The procedure:
as §5, §2

For test [15], the target named is T3, Mm_Fpr1. Briefly: BRET receptor-RLuc8 interaction with Arrestin 3-YFP. The format is cell-based. Particulars: Arrestin 3 BRET, % of response to 1 μM WKYMVm; mean; ND = no interaction detected. As to the method:
as §1, §2

The mark [16] stands for this setting: log of EC50, phosphorylation of ERK1/2, HEK293 stable cells, mean, ND = no pERK signal detected.
The mark [17] stands for this setting: mean, ND = no competition observed.

What is called EC50 is the concentration at which the effect is half-maximal. For orientation: Emax means the maximal effect, on the per cent scale that the assay sets. As a reminder, the IC50 is the concentration that gives 50% inhibition.

Where a SMILES comes first, the peptide text is derived from it. The star is where a group is joined. Palmitoyl = CCCCCCCCCCCCCCCC(=O)*

With `CCCCCCCCCCCCCCCC(=O)N[C@@H](CCCCN)C(=O)N[C@H](C(=O)N[C@@H](Cc1c[nH]cn1)C(=O)N[C@@H](CCCCN)C(=O)N[C@@H](CCCCN)C(=O)NCC(=O)N[C@@H](CCSC)C(=O)N[C@H](C(=O)N[C@@H](CCCCN)C(=O)N[C@@H](CO)C(=O)O)[C@@H](C)CC)[C@@H](C)CC` [F2Pal10] (Palmitoyl-KIHKKGMIKS-OH), the EC50 on Hs_FPR2 [1] is 0.166 µM; at Mm_Fpr2 [2], 0.166 µM; at Hs_FPR2 [4] (setting [16]), 0.0337 µM; at Mm_Fpr2 [5] (setting [16]) it was 0.0533 µM; on Hs_FPR2 [8] (read-out: Log EC50 (converted)), 0.282 µM; at Mm_Fpr2 [9], 0.263 µM. Moreover, the maximal effect (Emax) at Hs_FPR2 [1] was 19.4%; on Mm_Fpr2 [2] it was 24.2%; at Mm_Fpr2 [3], 12.3%; on Hs_FPR2 [4], 80.8%; on Mm_Fpr2 [5], 141%; at Hs_FPR2 [8], 25.5%. For the same compound, the maximal effect (Emax) on Mm_Fpr2 [9] stood at 33.4%. Also, the “Gi interaction, % of that seen with WKYMVm” value on Hs_FPR2 [1] (only detected at 1 and 10 μM) turned out to be 20%. The IC50 was 5.37 µM on Hs_FPR2 [6] and 4.2 µM on Mm_Fpr2 [7]. Moreover, the “Max Comp (%)” value at Hs_FPR2 [6] (maximum proportion of competition with 10 nM K(5/6-FAM)-WKYMVm, mean, ND = no competition observed) came to 100%; on Mm_Fpr2 [7] (setting [17]), 100%.

Turning to `CC(C)c1c(NC(=O)Nc2ccc(Cl)cc2)c(=O)n(-c2ccccc2)n1C` [TC-FPR43], the “Log EC50 (M)” value on Mm_Fpr1 [10] (log of EC50, HEK293 transient, 10 min) is on record as −7.09 M; on Mm_Fpr2 [2] (log of EC50, mGsi BRET, HEK293 transient, 10 min, mean, ND = no interaction detected), −6.19 M; at Mm_Fpr1 [13] (log of EC50, phosphorylation of ERK1/2, HEK293 stable cells), −7.589 M; at Mm_Fpr2 [5] (setting [16]), −6.775 M; at Mm_Fpr2 [9] (log of EC50, Arrestin 3 BRET, HEK293 transient, 10 min, mean, ND = no interaction detected), −6.20 M. Also, the “Emax (%)” value at Mm_Fpr1 [10] (% of response to 1 μM WKYMVm) is 12.62%; on Mm_Fpr2 [2] (mGsi BRET, % of response to 1 μM WKYMVm, mean, ND = no interaction detected), 73.16%; on Mm_Fpr1 [13] (phospho-ERK, % of 1 μM WKYMVm) it was 78.28%; at Mm_Fpr2 [5] (phospho-ERK, % of 1 μM WKYMVm, mean, ND = no pERK signal detected), 147.8%; at Mm_Fpr1 [15], 39.42%; on Mm_Fpr2 [9] (Arrestin 3 BRET, % of response to 1 μM WKYMVm, mean, ND = no interaction detected), 73.06%. Moreover, the “Emax (%), internalization, Mean” value was determined as 95.95% at Mm_Fpr1 [11] (% of internalization to WKYMVm (1 mM in legend, 1 μM in text), Mm_Fpr1, 30 minutes, ND denotes no internalization measured) and 42.90% at Mm_Fpr2 [3] (% of internalization to WKYMVm (1 mM in legend, 1 μM in text), Mm_Fpr2, 30 minutes). The “Log EC50 (M), internalization, Mean” value is −6.155 M at Mm_Fpr1 [11] (Log EC50, HEK293 stably expressing FLAG-Mm_Fpr1, ligand 30 minutes, ND denotes no internalization measured) and −7.063 M at Mm_Fpr2 [3] (Log EC50, HEK293 stably expressing FLAG-Mm_Fpr2, ligand 30 minutes). The “agonist-induced internalization (words)” value at Mm_Fpr1 [11] (Mm_Fpr1, 30 min, relative to 1 μM WKYMVm) is recorded as “partial agonists”; on Mm_Fpr2 [3] (Mm_Fpr2, 30 min, relative to 1 μM WKYMVm) it was “partial agonists”. Further, in test [12] (summary grade of ligand bias relative to WKYMVm, key not given), the Bias result is recorded as “No”. For the same compound, the Notes result in test [12] (summary of main findings, in words) is “Partial/weak only”. The “Log IC50 (M)” value was −5.926 M at Mm_Fpr1 [14] (log of IC50, competition with 10 nM K(5/6-FAM)-WKYMVm, HEK293 stable cells, on ice 90 min) and −6.16 M on Mm_Fpr2 [7] (log of IC50, competition with 10 nM K(5/6-FAM)-WKYMVm, HEK293 stable cells, on ice 90 min, mean, ND = no competition observed). Moreover, the entries for the “Max Comp (%)” value on Mm_Fpr1 [14] (maximum proportion of competition with 10 nM K(5/6-FAM)-WKYMVm) and on Mm_Fpr2 [7] (setting [17]) were 61.39% and 29.56%, respectively.
